In article PMC8617627, “Novel DYRK1A Inhibitor Rescues Learning and Memory Deficits in a Mouse Model of Down Syndrome” (Pharmaceuticals, 2021):
Where two headings read alike, the source gives them in different places.

Assays:
Assay in all cases: Kinase profile (33P ATP filter binding)
Assay type in all cases: biochemical
Conditions in all cases: read-out: Remaining protein kinase activity
STK33 = STK33 (Homo sapiens, UniProt Q9BYT3)
Protocol: (§1) The compounds were diluted to the appropriate concentration. The compounds were added to a “mother plate” consisting of samples, controls, and blanks. These serve as the source for “daughter plates” which are stored at −20 °C until assay initiation. Protein Kinases: Enzyme/Substrate mixture was added to the compound, and the compounds were incubated for five minutes at room temperature (RT). ^33P ATP was added to the compounds to initiate the assay. Orthophosphoric acid was added to the compounds to halt the assay. Assay components were harvested onto P81 filter plates, filter plates were air-dried, scintillation fluid was added to plates, and counts were read on a Topcount NXT. A mean percentage activity was calculated.

S6K1 = S6K1 (Homo sapiens, UniProt P23443)
Chain of S6K1 (P23443 whole entry, species assumed): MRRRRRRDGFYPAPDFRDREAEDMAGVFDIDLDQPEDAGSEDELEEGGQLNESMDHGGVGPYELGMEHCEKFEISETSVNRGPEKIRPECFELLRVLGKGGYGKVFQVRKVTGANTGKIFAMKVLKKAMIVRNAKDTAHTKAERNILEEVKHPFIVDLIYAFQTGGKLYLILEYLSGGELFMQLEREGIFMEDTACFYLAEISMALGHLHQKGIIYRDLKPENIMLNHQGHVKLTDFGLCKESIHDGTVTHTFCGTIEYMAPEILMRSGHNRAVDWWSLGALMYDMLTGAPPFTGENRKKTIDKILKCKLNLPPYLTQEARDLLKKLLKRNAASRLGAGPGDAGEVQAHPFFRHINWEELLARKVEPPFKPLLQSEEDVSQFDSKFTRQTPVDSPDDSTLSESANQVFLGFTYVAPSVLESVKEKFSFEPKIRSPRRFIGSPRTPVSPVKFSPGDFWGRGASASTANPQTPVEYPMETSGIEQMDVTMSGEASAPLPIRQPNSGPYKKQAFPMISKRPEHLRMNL
Protocol: as §1

ERK5 = ERK5 (Homo sapiens, UniProt Q13164)
Chain of ERK5 (Q13164 whole entry, species assumed): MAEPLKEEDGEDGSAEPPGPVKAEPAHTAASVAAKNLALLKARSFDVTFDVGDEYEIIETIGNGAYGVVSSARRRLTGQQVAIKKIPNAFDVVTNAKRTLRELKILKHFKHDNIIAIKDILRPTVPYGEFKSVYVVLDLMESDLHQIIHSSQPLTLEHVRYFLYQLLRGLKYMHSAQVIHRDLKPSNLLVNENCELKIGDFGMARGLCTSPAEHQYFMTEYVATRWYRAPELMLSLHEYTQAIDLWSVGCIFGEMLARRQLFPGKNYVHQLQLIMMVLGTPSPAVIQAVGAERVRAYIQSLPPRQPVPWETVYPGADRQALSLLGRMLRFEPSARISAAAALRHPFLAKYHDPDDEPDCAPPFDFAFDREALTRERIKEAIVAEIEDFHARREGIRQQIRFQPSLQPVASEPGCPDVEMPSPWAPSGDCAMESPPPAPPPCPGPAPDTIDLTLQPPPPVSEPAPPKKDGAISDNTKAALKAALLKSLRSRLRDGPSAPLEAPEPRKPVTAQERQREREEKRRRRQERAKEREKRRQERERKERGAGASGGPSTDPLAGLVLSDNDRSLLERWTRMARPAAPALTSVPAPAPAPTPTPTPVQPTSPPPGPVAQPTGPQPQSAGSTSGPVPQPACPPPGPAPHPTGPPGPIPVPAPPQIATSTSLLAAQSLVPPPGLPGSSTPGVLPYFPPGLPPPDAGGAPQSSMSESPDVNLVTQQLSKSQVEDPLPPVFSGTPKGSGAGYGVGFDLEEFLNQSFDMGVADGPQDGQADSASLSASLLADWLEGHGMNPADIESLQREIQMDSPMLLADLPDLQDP
Protocol: as §1

EPH-A4 = EPH-A4 (Homo sapiens, UniProt P54764)
Chain of EPH-A4 (P54764 20-986): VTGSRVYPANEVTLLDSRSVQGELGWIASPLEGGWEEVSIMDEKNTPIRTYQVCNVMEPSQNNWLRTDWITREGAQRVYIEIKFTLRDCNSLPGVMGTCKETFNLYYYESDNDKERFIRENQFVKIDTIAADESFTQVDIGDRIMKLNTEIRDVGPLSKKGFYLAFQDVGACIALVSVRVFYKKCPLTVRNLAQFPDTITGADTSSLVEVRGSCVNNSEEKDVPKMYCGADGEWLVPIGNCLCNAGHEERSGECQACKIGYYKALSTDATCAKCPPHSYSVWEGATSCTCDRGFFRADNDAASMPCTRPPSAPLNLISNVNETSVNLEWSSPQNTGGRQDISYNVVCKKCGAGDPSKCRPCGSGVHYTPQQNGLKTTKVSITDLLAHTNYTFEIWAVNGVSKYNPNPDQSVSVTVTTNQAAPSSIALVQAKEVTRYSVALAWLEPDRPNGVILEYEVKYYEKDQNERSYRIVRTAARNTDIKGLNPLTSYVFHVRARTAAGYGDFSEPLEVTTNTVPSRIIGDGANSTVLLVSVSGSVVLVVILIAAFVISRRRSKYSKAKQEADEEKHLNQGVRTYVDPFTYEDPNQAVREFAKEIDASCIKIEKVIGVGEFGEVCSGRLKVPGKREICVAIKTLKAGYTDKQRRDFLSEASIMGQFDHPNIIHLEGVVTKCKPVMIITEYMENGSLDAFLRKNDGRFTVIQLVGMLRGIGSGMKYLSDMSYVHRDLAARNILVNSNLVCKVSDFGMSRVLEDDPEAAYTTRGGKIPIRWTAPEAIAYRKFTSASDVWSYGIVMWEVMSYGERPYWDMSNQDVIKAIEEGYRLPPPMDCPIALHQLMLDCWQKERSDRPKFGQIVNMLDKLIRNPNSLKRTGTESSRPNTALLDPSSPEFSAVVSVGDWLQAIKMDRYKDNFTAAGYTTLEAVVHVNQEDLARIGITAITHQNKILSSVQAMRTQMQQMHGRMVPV
Protocol: as §1

GCK = molecular target: T1, GCK (Homo sapiens, UniProt Q12851)
T1 sequence (Q12851 1-820): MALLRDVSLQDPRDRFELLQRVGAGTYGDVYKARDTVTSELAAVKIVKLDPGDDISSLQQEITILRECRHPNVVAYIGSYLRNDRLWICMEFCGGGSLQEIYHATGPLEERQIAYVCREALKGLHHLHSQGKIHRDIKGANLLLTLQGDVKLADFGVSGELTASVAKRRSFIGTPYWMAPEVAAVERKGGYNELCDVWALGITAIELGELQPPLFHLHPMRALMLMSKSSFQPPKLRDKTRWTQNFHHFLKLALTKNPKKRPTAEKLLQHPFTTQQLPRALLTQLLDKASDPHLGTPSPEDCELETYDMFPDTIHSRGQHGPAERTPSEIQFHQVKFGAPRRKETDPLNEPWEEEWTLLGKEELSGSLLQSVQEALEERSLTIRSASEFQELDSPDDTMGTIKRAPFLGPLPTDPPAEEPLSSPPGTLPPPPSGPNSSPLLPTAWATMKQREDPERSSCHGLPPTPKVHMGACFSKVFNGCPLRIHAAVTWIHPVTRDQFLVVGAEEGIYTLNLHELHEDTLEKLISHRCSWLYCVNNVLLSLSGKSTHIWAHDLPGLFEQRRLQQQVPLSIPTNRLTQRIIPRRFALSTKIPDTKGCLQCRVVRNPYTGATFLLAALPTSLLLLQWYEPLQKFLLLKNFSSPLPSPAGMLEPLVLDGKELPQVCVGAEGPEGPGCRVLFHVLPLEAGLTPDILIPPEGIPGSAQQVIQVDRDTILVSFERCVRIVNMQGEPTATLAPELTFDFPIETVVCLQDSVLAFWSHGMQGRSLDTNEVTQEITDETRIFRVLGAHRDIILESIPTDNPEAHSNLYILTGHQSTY
Protocol: as §1

EIF2AK3 = molecular target: T2, EIF2AK3 (Homo sapiens, UniProt Q9NZJ5)
T2 sequence (Q9NZJ5 30-1116): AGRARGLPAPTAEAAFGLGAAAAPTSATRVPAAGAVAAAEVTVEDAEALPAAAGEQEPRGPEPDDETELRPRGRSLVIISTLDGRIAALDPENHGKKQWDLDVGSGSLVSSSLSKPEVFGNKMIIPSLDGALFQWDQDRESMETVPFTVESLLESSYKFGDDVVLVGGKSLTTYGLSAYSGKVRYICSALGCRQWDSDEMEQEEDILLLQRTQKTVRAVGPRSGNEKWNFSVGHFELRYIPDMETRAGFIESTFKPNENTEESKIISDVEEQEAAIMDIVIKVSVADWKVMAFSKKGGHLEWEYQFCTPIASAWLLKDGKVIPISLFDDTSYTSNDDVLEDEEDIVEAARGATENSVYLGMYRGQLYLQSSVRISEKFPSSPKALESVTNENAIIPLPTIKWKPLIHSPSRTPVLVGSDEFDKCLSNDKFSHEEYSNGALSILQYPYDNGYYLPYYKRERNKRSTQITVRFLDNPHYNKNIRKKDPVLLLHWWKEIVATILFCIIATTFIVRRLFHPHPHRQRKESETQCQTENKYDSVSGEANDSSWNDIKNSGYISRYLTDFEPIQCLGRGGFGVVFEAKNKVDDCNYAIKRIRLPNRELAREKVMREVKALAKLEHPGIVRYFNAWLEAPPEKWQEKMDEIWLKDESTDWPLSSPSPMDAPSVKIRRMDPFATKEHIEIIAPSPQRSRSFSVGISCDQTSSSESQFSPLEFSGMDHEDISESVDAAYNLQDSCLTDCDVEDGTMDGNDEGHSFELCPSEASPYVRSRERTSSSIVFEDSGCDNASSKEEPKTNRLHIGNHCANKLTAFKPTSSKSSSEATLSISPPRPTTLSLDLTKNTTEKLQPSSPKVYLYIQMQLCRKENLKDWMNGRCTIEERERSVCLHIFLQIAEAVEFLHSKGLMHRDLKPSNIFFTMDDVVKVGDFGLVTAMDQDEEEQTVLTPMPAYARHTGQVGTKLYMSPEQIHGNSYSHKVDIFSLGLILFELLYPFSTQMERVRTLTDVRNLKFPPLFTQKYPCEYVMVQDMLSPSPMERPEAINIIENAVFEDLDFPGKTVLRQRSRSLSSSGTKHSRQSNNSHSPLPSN
Protocol: as §1

RSK2 = RSK2 (Homo sapiens, UniProt P51812)
Chain of RSK2 (P51812 whole entry, species assumed): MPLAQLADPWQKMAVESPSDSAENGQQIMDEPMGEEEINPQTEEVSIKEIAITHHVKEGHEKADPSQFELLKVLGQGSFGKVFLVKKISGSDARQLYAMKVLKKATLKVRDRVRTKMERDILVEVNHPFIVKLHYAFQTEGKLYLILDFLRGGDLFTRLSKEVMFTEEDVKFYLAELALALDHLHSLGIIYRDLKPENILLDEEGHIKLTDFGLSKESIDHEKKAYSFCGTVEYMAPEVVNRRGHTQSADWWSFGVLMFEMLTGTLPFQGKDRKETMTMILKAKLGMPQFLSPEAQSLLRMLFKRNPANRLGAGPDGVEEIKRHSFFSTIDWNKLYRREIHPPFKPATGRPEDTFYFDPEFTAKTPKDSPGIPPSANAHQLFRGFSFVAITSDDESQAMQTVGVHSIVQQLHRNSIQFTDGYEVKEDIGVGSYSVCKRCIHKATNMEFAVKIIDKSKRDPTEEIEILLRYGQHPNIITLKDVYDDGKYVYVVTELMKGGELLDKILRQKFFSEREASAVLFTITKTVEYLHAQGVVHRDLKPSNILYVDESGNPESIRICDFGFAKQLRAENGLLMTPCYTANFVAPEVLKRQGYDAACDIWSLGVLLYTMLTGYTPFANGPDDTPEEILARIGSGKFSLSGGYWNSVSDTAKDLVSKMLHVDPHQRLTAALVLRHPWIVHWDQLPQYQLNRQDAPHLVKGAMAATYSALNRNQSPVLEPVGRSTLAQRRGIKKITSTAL
Protocol: as §1

Chain of STK33 (Q9BYT3 whole entry): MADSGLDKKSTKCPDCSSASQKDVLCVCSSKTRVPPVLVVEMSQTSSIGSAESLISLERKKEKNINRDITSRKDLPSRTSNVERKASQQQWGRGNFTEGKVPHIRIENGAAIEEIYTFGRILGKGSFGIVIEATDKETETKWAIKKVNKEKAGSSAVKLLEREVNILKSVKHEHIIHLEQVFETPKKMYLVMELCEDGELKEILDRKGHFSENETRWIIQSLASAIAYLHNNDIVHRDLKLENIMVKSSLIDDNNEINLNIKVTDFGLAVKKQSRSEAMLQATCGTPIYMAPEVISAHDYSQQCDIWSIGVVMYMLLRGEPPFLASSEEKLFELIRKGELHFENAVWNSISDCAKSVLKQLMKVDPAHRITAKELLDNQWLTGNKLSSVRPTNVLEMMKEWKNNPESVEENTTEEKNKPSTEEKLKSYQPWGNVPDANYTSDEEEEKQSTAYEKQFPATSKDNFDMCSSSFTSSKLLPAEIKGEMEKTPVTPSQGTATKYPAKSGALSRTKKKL

With `COc1ccc2sc(-c3cncc(NC(C)=O)c3)nc2c1` [PST-001, N-(5-(5-Methoxybenzo[d]thiazol-2-yl)pyridin-3-yl)acetamide] the remaining activity at 1 µM (STK33) was 113%, the remaining activity at 100 µM (STK33) was 112% and the remaining activity at 1 µM (S6K1) was 113%. It also gave a remaining activity at 100 µM (S6K1) of 81%, a remaining activity at 1 µM (ERK5) of 72% and a remaining activity at 100 µM (ERK5) of 51%. It also gave a remaining activity at 1 µM (EPH-A4) of 117%, a remaining activity at 100 µM (EPH-A4) of 106% and a remaining activity at 1 µM (GCK) of 118%. It also gave a remaining activity at 100 µM (GCK) of 123%, a remaining activity at 1 µM (EIF2AK3) of 123% and a remaining activity at 100 µM (EIF2AK3) of 118%. The remaining activity at 1 µM (RSK2) was 113% and the remaining activity at 100 µM (RSK2) was 100%.

With `COc1ccc2sc(-c3cncc(N)c3)nc2c1` [compound 1, 5-(5-Methoxybenzo[d]thiazol-2-yl)pyridin-3-amine] the remaining activity at 1 µM (STK33; STK33, 1 μM) was 111%, the remaining activity at 100 µM (STK33; STK33, 100 μM) was 57% and the remaining activity at 1 µM (S6K1; S6K1, 1 μM) was 118%. It also gave a remaining activity at 100 µM (S6K1; S6K1, 100 μM) of 58%, a remaining activity at 1 µM (ERK5; ERK5, 1 μM) of 66% and a remaining activity at 100 µM (ERK5; ERK5, 100 μM) of 37%. For the same compound, the remaining activity at 1 µM (EPH-A4; EPH-A4, 1 μM) was 89%, the remaining activity at 100 µM (EPH-A4; EPH-A4, 100 μM) was 85% and the remaining activity at 1 µM (GCK; GCK, 1 μM) was 105%. It also gave a remaining activity at 100 µM (GCK; GCK, 100 μM) of 28%, a remaining activity at 1 µM (EIF2AK3; EIF2AK3, 1 μM) of 122% and a remaining activity at 100 µM (EIF2AK3; EIF2AK3, 100 μM) of 84%. It also gave a remaining activity at 1 µM (RSK2; RSK2, 1 μM) of 115% and a remaining activity at 100 µM (RSK2; RSK2, 100 μM) of 56%.
